# Measured values published in ChEMBL document CHEMBL2062519, “The β-Amyloid Hypothesis in Alzheimer's Disease: Seeing Is Believing” (ACS Med Chem Lett, 2012).
# Molecular target: Amyloid-beta precursor protein (Homo sapiens, UniProt P05067)
# Experiment: Binding affinity to human amyloid beta plaque
# Amyloid-beta precursor protein, sequence (P05067 whole entry): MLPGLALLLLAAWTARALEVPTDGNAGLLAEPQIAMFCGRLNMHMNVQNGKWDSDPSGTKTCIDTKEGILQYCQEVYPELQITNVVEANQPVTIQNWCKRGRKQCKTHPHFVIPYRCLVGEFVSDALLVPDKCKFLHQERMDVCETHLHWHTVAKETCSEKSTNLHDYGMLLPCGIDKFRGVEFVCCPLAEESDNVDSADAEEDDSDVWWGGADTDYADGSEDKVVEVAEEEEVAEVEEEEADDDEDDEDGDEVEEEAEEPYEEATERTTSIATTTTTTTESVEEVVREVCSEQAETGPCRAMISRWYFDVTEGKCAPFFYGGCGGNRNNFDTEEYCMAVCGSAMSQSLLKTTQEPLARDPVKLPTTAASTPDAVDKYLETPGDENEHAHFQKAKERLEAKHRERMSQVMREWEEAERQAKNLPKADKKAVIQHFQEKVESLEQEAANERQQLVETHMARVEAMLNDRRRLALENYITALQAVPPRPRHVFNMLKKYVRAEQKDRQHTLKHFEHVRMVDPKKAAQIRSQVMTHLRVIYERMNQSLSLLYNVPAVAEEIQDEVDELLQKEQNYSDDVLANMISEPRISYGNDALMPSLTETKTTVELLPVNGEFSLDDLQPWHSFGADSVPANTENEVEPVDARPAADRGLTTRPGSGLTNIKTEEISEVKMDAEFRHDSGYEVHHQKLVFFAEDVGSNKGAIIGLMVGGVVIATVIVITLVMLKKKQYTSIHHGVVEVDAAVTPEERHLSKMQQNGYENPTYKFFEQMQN
smiles,measurement,value
CNc1ccc(-c2nc3ccc(O)cc3s2)cc1[18F] [FLUTEMETAMOL F 18],Ki,0.7 nM
